# Results as given in article PMC10320002, “In vitro antiproliferative, anti-inflammatory effects and molecular docking studies of natural compounds isolated from Sarcocephalus pobeguinii (Hua ex Pobég)” (Frontiers in Pharmacology, 2023).
# Values joined by “and” are separate entries in the source; they are usually repeats but may differ in a detail not shown here. Equal values may be shown once. Where a name gives a salt, the structure may show the parent alone. Read-outs that look alike come from different tables or passages of the source.
# Assays:
# HepG2 cells = experiment: MTT antiproliferation assay, HepG2; assay type: cell-based, human; settings: for IC50: Homo sapiens, HepG2, 48 h, MTT; for SI values HepG2: IC50 of non-cancerous Vero cells divided by IC50 of HepG2
# Description: (§1) Cancerous cell lines (MCF-7: human breast adenocarcinoma cells; HepG2: human hepatocellular carcinoma cells; Caco-2: human epithelial colorectal adenocarcinoma cells; A549: human epithelial lung adenocarcinoma cells), obtained from the American Type Culture Collection (ATCC) (Rockville, MD, United States of America), were cultured in Dulbecco’s Modified Eagle’s Medium (DMEM) high glucose (4.5 g/L) containing L-glutamine (4 mM) and sodium-pyruvate (Hyclone™) supplemented with 10% (v/v) fetal bovine serum (FBS) (Capricorn Scientific GmbH, South America), and incubated at 37°C with 5% CO2 in a humidified environment. African green monkey (Vero) kidney cells (also obtained from ATCC), a non-cancerous cell line, were grown in DMEM high glucose (4.5 g/L) containing L-glutamine (Lonza, Belgium) and supplemented with 5% FBS (Capricorn Scientific GmbH, South America) and 1% gentamicin (Virbac, RSA) in the same environment as cancer cells. The RAW 264.7 murine macrophage cells (obtained from ATCC) were cultured in DMEM high glucose (4.5 g/L) containing L-glutamine (Lonza, Belgium), supplemented with 10% FBS (Capricorn Scientific GmbH, South America) and 1% penicillin/streptomycin/fungizone (PSF) solution, and kept at 37°C in a 5% CO2 humidified environment.
# (§2) The cancerous and non-cancerous cells were seeded at a density of 10^4 cells per well in 96-well microtiter plates, and they were incubated overnight at 37°C with 5% CO2 in a 5% CO2 humidified environment in order to allow the attachment of cells at the bottom of the plates. Then, the cells were exposed to increasing concentrations of compounds (100, 50, 25, 10 and 5 μg/mL) dissolved in dimethyl sulfoxide (DMSO) and further diluted in fresh culture medium. In this assay, the final concentration of DMSO in the culture medium was 0.5% used as negative control while doxorubicin hydrochloride (Pfizer, United States of America) was used as a positive control. The culture plates were incubated for 48 h at 37°C in a 5% CO2 humidified environment, after which the culture medium was discarded, and replaced by 200 µL of fresh culture medium with 30 µL of 3-(4,5-dimethylthiazol-2-yl)-2,5-diphenyl-2H-tetrazolium bromide (MTT) (5 mg/mL) dissolved in phosphate buffered saline ([Mosmann, 1983]). After 4 h of incubation, the medium was gently removed, and the formazan crystals were solubilized in 50 µL of DMSO. The absorbance was measured at 570 nm after shaking for 1 min on a microplate reader (Synergy Multi-Mode Reader, BioTek, Winooski, United States of America).
# (§3) The cell viability rate was determined at each concentration of the compound as a percentage of cells treated with DMSO at 0.5% used as negative control. […] The selectivity index (Supporting Material) values were calculated for each compound by dividing the IC50 of non-cancerous cells by the IC50 of cancerous cells in the same units ([Mfotie Njoya et al., 2018]; [Mfotie Njoya et al., 2020]).
# Caco-2 cells = experiment: MTT antiproliferation assay, Caco-2; assay type: cell-based, human; settings: for IC50: Homo sapiens, Caco-2, 48 h, MTT
# Description: as §1, §2, §3
# 15-LOX = target: T1, 15-LOX (Glycine max, UniProt P08170); experiment: Soybean 15-LOX inhibitory assay (FOX); assay type: biochemical; settings: linoleic acid 140 μM, pH 7.4, 25°C
# T1 construct: purchased Merck, Darmstadt, Germany
# T1 sequence (P08170 1-839): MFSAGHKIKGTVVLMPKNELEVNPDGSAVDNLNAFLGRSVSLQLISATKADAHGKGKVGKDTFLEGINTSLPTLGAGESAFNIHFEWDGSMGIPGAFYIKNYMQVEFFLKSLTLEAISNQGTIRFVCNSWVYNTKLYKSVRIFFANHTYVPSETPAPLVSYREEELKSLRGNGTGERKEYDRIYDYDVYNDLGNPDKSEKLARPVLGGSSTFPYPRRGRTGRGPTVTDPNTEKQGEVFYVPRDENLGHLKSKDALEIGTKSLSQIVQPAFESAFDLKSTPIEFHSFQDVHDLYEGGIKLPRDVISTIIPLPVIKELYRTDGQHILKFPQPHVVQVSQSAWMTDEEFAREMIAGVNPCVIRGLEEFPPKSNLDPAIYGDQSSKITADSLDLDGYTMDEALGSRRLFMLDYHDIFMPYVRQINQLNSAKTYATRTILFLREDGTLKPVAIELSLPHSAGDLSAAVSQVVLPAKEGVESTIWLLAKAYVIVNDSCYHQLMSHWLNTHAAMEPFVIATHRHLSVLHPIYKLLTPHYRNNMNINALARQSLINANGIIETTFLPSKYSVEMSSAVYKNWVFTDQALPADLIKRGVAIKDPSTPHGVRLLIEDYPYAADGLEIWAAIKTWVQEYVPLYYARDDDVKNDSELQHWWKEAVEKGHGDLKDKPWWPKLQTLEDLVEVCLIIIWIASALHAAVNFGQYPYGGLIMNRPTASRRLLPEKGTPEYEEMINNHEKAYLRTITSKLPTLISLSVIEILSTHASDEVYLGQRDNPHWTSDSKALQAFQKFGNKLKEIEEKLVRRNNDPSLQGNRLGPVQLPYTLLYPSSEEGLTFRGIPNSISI
# Description: This assay is based on the formation of the Fe^3+/xylenol orange (FOX) complex with maximal absorption at 560 nm ([Pinto et al., 2007]). Forty microliters of 15-LOX (final concentration: 200 UI/mL) from Glycine max (Merck, Darmstadt, Germany) was incubated with 20 µL of tested samples (100, 50, 25, 10, and 5 μg/mL) at 25°C for 5 min, with DMSO at 10% (v/v) being used as negative control. Thereafter, 40 µL of linoleic acid (final concentration, 140 μM) prepared in Tris-HCl buffer (50 mM, pH 7.4) was added, and the plates were further incubated at 25°C for 20 min in the dark. The assay was terminated by adding 100 μL of FOX reagent [sulfuric acid (30 mM), xylenol orange (100 μM), ferrous II) sulfate (100 μM), dissolved in methanol/water (9:1)], followed by the incubation of the plates at 25°C for 30 min in the dark. Finally, the absorbance was measured at 560 nm on a microplate reader (Epoch, BioTek, Winooski, United States of America). The blanks were made in the same way as tested samples except that the substrate was added after the FOX reagent. The 15-LOX inhibitory activity was calculated by using the following formula: 15−LOX inhibitory activity %=100−Abs sample−Abs blank/Abs negative control−Abs blank×100 (1)
# MCF-7 cells = experiment: MTT antiproliferation assay, MCF-7; assay type: cell-based, human; settings: for IC50: Homo sapiens, MCF7, 48 h, MTT
# Description: as §1, §2, §3
# A549 cells = experiment: MTT antiproliferation assay, A549; assay type: cell-based, human; settings: for IC50: Homo sapiens, A549, 48 h, MTT
# Description: as §1, §2, §3
# Vero cells = experiment: MTT antiproliferation assay, non-cancerous Vero cells; assay type: cell-based, African green monkey; settings: Chlorocebus sabaeus, Vero; 48 h, MTT
# Description: as §1, §2, §3
# [1] = system: NO production in LPS-stimulated RAW 264.7 cells; experiment: Nitric oxide production inhibitory assay (Griess) in LPS-stimulated RAW 264.7 cells; assay type: cell-based, murine; settings: Mus musculus, RAW264.7; LPS (2 μg/mL), 24 h
# Description: as §1
# Nitric oxide (NO) production was evaluated in lipopolysaccharide (LPS)-stimulated RAW 264.7 cells by measuring the influence of tested compounds on the accumulation of nitrite, an indicator of NO in the cell supernatant, which can be detected with Griess reagent (Merck, Darmstadt, Germany). Briefly, the RAW 264.7 cells at their exponential growth phase were seeded at a density of 2×10^4 cells per well in 96 well-microtiter plates, and they were incubated overnight at 37°C in a 5% CO2 humidified environment to allow attachment. […] Then, culture medium containing LPS (2 μg/mL) was added to each well and further incubated for 24 h at 37°C in a 5% CO2 humidified environment. Thereafter, 100 μL of cell supernatant from each well were transferred into a new 96-well microtiter plate and an equal volume of Griess reagent was added according to protocol described by the manufacturer. The microtiter plate was incubated for 10 min in the dark at room temperature, and the absorbance of the mixture was measured at 550 nm on a microplate reader (Synergy Multi-Mode Reader, BioTek, Winooski, United States of America). The quantity of nitrite was determined from a sodium nitrite standard curve, and the percentage of NO production was calculated based on the ability of each tested sample to inhibit nitric oxide production by LPS-stimulated RAW 264.7 cells compared to the control (cells treated with LPS without samples which was considered as 100% NO production). Additionally, the cell viability of treated cells was determined by using the MTT assay as previously described ([Mosmann, 1983]).
# [2] = read-out: IC50 values 15-LOX (converted)
SMILES,IC50 (HepG2 cells),IC50 (Caco-2 cells),IC50 (MCF-7 cells),IC50 (A549 cells),IC50 [1],IC50 (15-LOX; [2]),IC50 (15-LOX; IC50 values 15-LOX),IC50 (Vero cells),SI values HepG2 (HepG2 cells),SI values Caco-2 (Caco-2 cells; IC50 of non-cancerous Vero cells divided by IC50 of Caco-2),SI values MCF7 (MCF-7 cells; IC50 of non-cancerous Vero cells divided by IC50 of MCF-7),SI values A549 (A549 cells; IC50 of non-cancerous Vero cells divided by IC50 of A549)
"C[C@H]1[C@H](C)CC[C@]2(C(=O)O)CC[C@]3(C(=O)O)C(=CC[C@@H]4[C@@]5(C)CC[C@H](O)C(C)(C)[C@@H]5CC[C@]43C)[C@H]12 [Compound 8, quinovic acid]",100 µg/mL and 205 µM,81.6 µg/mL and 168 µM,98 µg/mL and 201 µM,204 µM and 99.5 µg/mL,86 µg/mL and 177 µM,,71.9 µM,> 100 µg/mL and > 205 µM,,,,
"C[C@@H]1CC[C@]2(C(=O)O)CC[C@]3(C(=O)O)C(=CCC4[C@@]5(C)CC[C@H](O)C(CO)(CO)C5CC[C@]43C)C2[C@H]1C (stereo partly shown) [Compound 3, chletric acid]",80 µg/mL and 150 µM,> 100 µg/mL and > 187 µM,> 100 µg/mL and > 187 µM,> 187 µM and > 100 µg/mL,> 100 µg/mL and > 187 µM,42.4 µM and 41.2 µM,,> 100 µg/mL and > 187 µM,,,,
"CC1(C)CC[C@]2(C)CC=C3[C@]4(C)CC[C@H]5C(C)(C)[C@@H](O)CC[C@]5(C)[C@H]4CC[C@@]3(C)[C@@H]2C1 [Compound 4, taraxerol]",54.2 µg/mL and 127 µM,> 100 µg/mL and > 234 µM,81.3 µg/mL and 191 µM,177 µM and 75.6 µg/mL,> 100 µg/mL and > 234 µM,> 234 µM,,> 100 µg/mL and > 234 µM,,,,

# The next lines start with results.
IC50 (HepG2 cells),IC50 (Caco-2 cells),IC50 (MCF-7 cells),IC50 (A549 cells),IC50 [1],IC50 (15-LOX; [2]),SMILES,IC50 (15-LOX; IC50 values 15-LOX),IC50 (Vero cells),SI values HepG2 (HepG2 cells),SI values Caco-2 (Caco-2 cells; IC50 of non-cancerous Vero cells divided by IC50 of Caco-2),SI values MCF7 (MCF-7 cells; IC50 of non-cancerous Vero cells divided by IC50 of MCF-7),SI values A549 (A549 cells; IC50 of non-cancerous Vero cells divided by IC50 of A549)
,,,,12.8 µg/mL and 42.5 µM,,"O=c1c(O)c(-c2ccc(O)c(O)c2)oc2cc(O)cc(O)c12 [Quercetin, quercetin, reference compound]",,,,,,
84.5 µg/mL and 198 µM,> 100 µg/mL and > 234 µM,82.8 µg/mL and 194 µM,217 µM and 92.7 µg/mL,> 100 µg/mL and > 234 µM,> 234 µM,"C[C@H]1[C@H](C)CC[C@]2(C)CC[C@]3(C)C(=CC[C@@H]4[C@@]5(C)CC[C@H](O)C(C)(C)[C@@H]5CC[C@]43C)[C@H]12 [Compound 5, α-amyrin (3β-hydroxy-urs-12-en-3-ol)]",,> 100 µg/mL and > 234 µM,,,,
73.9 µg/mL and 167 µM,> 100 µg/mL and > 226 µM,> 100 µg/mL and > 226 µM,> 226 µM and > 100 µg/mL,95.6 µg/mL and 216 µM,147 µM,"CC1(C)CC[C@]2(CO)CC[C@]3(C)C(=CC[C@@H]4[C@@]5(C)CC[C@H](O)C(C)(C)[C@@H]5CC[C@]43C)[C@@H]2C1 [Compound 7, erythrodiol]",,84 µg/mL and 190 µM,1.13,,,
0.56 ± 0.05 µM,4.97 ± 0.74 µM,1.09 ± 0.06 µM,0.71 ± 0.05 µM,,,"COc1cccc2c1C(=O)c1c(O)c3c(c(O)c1C2=O)C[C@@](O)(C(=O)CO)C[C@@H]3O[C@H]1C[C@H](N)[C@H](O)[C@H](C)O1 [Doxorubicin, doxorubicin hydrochloride, reference compound]",,4.85 ± 0.51 µM,8.66,0.98,4.45,6.83
